# Experiments:
# [1] = test system: Hepa1-6 cells; assay: Cell proliferation (CCK-8) with medium from treated neutrophils; type: cell-based, mouse; settings: CCK-8, medium from activated neutrophils treated with NPs; versus Control and NFTP-NPs groups
# Description: Submitted to Advanced Science
# Freshly isolated neutrophils were stimulated with PBS, PMA, PMA+NFTP-NPs, PMA+FTP-NPs, and PMA+NEi for 4 h to stimulate NETs formation. Cells were then centrifuged at 480g for 10 minutes. The supernatant (NETs rich media) was then centrifuged at 18000g for 15 mins to form a pellet. The obtained pellet contained the mixture of chromatins and proteins, which was then resuspended in cell culture media to treat cancer cells, which was collected and respectively named as resting neutrophils, Control, NFTP-NPs, FTP-NPs, and NEi, then stored at -80◦C for further use.
# Resting neutrophils (Neu)-treated, Control (Neu+PMA)-treated, NFTP-NPs (Neu+PMA+NFTP-NPs)-treated, FTP-NPs (Neu+PMA+FTP-NPs)-treated, and NEi (Neu+PMA+NEi)-treated Hepa1-6/luc cells and Hepa1-6/luc cells (2×10^3cells/well) were seeded on 96-well plates. Cell proliferation was assessed using the Cell Counting Kit-8 (Biosharp, China) following the manufacturer’s instructions. The final optical density (OD) value was measured daily for 3 consecutive days using a microplate reader at 450 nm (Tecan Infinite M200, Switzerland). Each condition was performed in triplicate. […]
# [2] = test system: Hepa1-6 cells; assay: Scratch (wound healing) assay; type: cell-based, mouse; settings: 24 h, medium from activated neutrophils treated with NPs, mean ± s.d., n = 3
# Description: Cell migration and invasion assay
# To produce cell gaps for cell scratch tests, Hepa1-6/luc cells were injected into culture inserts (IBIDI, Germany).
# After 24 hours, the cells were treated with Resting neutrophils, Control, NFTP-NPs, FTP-NPs, and NEi groups.
# Cell migration was monitored during the overnight culture of the cells. […]
# Matrigel tube formation assay
# Murine C166 endothelial cells (3×10^4cells/well) were placed on 96-well plates coated with Matrigel (356231,
# Corning, New York, USA) and incubated with various treatments. […]
# In vitro permeability assays and trans-endothelial invasion assays
# For in vitro permeability assays, C166 cells were treated with Resting neutrophils, Control, NFTP-NPs, FTP-
# NPs, and NEi groups for 48 h to form an endothelial monolayer, and then Evans Blue (PHYGENE, China) was
# added to the upper layer of the transwell filters (0.4 μm, Corning). […]
# All the experiments were performed thrice. […]
substance,measurement,setting,value
PpIX-GFFVLK-EAIPMSIPPEVK [FTP-NPs],proliferation rate of Hepa1-6 cells,[1],much lower
same,wound healing rate,[2],5.2% ± 1.8%
